# In US8088828B2, “Treating benign prostate hyperplasia with SARMS” (priority 2002, dated 2012):
# Columns and labels:
# intact male rats = test: Compound VII 0.5 mg/day in intact male rats, organ weights; assay type: in vivo, rat
# [1] = tested on: intact male Sprague-Dawley rats; test: Organ weights in intact male rats after 3, 6 or 9 days of daily subcutaneous injections; assay type: in vivo, rat
# Description: Methods: Male Sprague-Dawley rats were purchased from Harlan Biosciences (Indianapolis, Ind.). The animals were maintained on a 12-h cycle of light and dark with food and water available ad libitum. Male Sprague-Dawley rats weighing 189 to 226 g were randomly distributed into groups of 5 animals. The intact male rats were treated with hydroxy-flutamide (0.5, 1, 5, 10 or 25 mg/kg), finasteride (5 mg/kg), Compound VII (0.5, 1, 5, 10, 25 mg/kg) or vehicle for 3, 6, or 9 days. The drugs were dissolved in DMSO:PEG300 (20:80, v:v) and administered via daily subcutaneous injections, and the dosages were adjusted based on animal's body weight, which was measured on a daily basis. A group of castrated rats (n=5) was also included as control for each time point. […] The organ weights were normalized with the body weights. Percentage changes were determined by comparison to intact animals. Statistical analyses of all the parameters were performed by single-factor ANOVA with the alpha value set a priori at p<0.05.
# [2] = tested on: intact male Sprague-Dawley rats; test: Prostate weight in intact Sprague-Dawley rats after 7 days of oral gavage; assay type: in vivo, rat
# [3] = target: T1, human 5α-reductase type 1 (Homo sapiens, UniProt P18405); assay type: cell-based
# T1 construct: expressed in transfected cells; host or cells: COS1 cells; expression vectors obtained from Dr. David W. Russell
# T1 sequence (P18405 1-259): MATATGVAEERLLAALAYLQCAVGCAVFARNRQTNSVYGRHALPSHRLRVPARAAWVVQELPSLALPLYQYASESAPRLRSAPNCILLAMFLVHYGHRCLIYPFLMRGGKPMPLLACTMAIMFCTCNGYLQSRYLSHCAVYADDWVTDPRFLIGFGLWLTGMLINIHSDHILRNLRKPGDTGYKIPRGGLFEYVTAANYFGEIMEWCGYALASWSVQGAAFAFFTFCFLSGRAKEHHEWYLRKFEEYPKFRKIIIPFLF
# Description: (§1) Methods: COS1 (American Type Culture Collection, Manassas, Va.) cells were plated in twelve-well plates at a density of 60,000 cells/well and transiently transfected with expression vectors for human 5•-reductase (obtained from Dr. David W. Russell, Southwestern Medical Center, Dallas, Tex.). LipofectAMINE PLUS™ Reagent (Invitrogen, Carlsbad, Calif.) was used for transfection. pCMV•SPORT-•gal plasmid (Invitrogen, Carlsbad, Calif.) was co-transfected to monitor transfection efficiency. Forty-eight hours after transfection, testosterone (4 μM) and/or Compound VI (2 or 200 μM) were added to the medium and incubated at 37° C. Aliquots of the culture medium were removed after 2 hours and the reaction stopped by addition of ice-cold acetonitrile (1:1, vol:vol). Testosterone and Compound VI concentrations in the incubate were determined by HPLC using a reversed-phase column (μBondaPak C18, 3.9×300 mm, Waters Corporation, Milford, Mass.) and a mobile phase of 38% acetonitrile in deionized water at a flow rate of 1.5 ml/min. Analytes were detected by UV absorbance at 254 nm. Calibration curves were prepared using the peak areas to calculate the concentration of testosterone or Compound VI in the incubate at the completion of the reaction. Cells were lysed after the reaction and the cellular supernatant used to determine •-galactosidase activity and ensure equal transfection efficiency between wells.
# [4] = target: T2, human 5α-reductase type 2 (Homo sapiens, UniProt P31213); assay type: cell-based
# T2 construct: expressed in transfected cells; host or cells: COS1 cells; expression vectors obtained from Dr. David W. Russell
# T2 sequence (P31213 1-254): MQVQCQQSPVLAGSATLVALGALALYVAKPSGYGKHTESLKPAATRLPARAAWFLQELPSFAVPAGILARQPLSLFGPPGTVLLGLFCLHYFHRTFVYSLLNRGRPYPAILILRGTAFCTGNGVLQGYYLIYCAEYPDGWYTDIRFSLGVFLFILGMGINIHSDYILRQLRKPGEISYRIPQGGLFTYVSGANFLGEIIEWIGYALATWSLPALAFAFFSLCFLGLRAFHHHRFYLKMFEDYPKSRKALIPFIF
# Description: as §1
# [5] = tested on: male Sprague-Dawley rats (intact, hemi-orchidectomized, castrated); test: Plasma testosterone, FSH, LH and osteocalcin in rats of varying hormonal status; assay type: in vivo, rat; conditions: for Plasma FSH levels / Plasma LH levels / Plasma osteocalcin levels / Plasma testosterone levels: 0.5 mg/day osmotic pump, 14 days
# Description: (§2) Methods: Compound VI was synthesized and characterized in the laboratory of Dr. Duane Miller at the University of Tennessee, Memphis, Tenn. Male Sprague-Dawley rats were purchased from Harlan Biosciences (Indianapolis, Ind.). The animals were maintained on a 12-h cycle of light and dark with food and water available ad libitum. All animal studies were reviewed and approved by the Animal Care and Use Committee of The Ohio State University, and conformed to the Principles of Laboratory Animal Care. Immature male Sprague-Dawley rats weighing […] were randomly distributed into 9 groups of 5 animals. One day before the initiation of drug treatment, groups 4 through 6 and groups 7 through 9 received unilateral or bilateral orchidectomy, respectively, via a midline scrotal incision. […] All drugs given to animals were freshly prepared as solutions in polyethylene glycol 300 (PEG 300). Groups 4 and 7 received treatment with vehicle alone (i.e., PEG 300). Animals in groups 3, 6, and 9 received testosterone propionate (TP, 0.5 mg/day) via implantation of subdermal osmotic pumps (Model 2002, Durect Corporation, Palo Alto, Calif.). Animals in groups 2, 5, and 8 received Compound VI (0.5 mg/day) via implantation of subdermal osmotic pumps. After 14 days of drug treatment, rats were weighed, anesthetized, and sacrificed. Blood samples were collected by venipuncture of the abdominal aorta. Plasma samples were analyzed for testosterone, FSH, LH and osteocalcin. Testosterone concentrations were measured by AniLytics Inc. (Gaithersburg, Md.). FSH and LH levels were measured by the National Hormone and Peptide Program (Dr. A F Parlow, UCLA, CA). Plasma osteocalcin levels were determined using a commercially available rat osteocalcin EIA kit from Biomedical Technologies Inc. (Stoughton, Mass.). The ventral prostates, seminal vesicles, and levator ani muscle were removed and weighed. Osmotic pumps were also removed from animals to check for correct pump operation. The weights of all organs were normalized to body weight, and analyzed for any statistically significant differences between groups using single-factor ANOVA with the alpha value set a priori at p<0.05. The weights of prostates and seminal vesicles were used as indices for evaluation of androgenic activity, and the levator ani muscle weight was used to evaluate the anabolic activity. Statistical analyses of parameters from complete blood count or serum chemical profiling, wherever applicable, were performed by single-factor ANOVA with the alpha value set a priori at p<0.05.
# [6] = tested on: male Sprague-Dawley rats (intact, hemi-orchidectomized, castrated); test: Prostate, seminal vesicle and levator ani muscle weights in rats of varying hormonal status; assay type: in vivo, rat; conditions: 0.5 mg/day, 14 days
# Description: as §2
# [7] = 3 days, in general over 0.5, 1, 5, 10, 25 mg/kg s.c.
# [8] = 9 days, high doses (5, 10, 25 mg/kg) s.c.
# [9] = Compound VI 2 μM, 2-hour incubation
# [10] = testosterone 4 μM, Compound VI 2 μM or 200 μM, 2 hours
smiles,measurement,setting,value
C[C@](O)(COc1ccc(F)cc1)C(=O)Nc1ccc([N+](=O)[O-])c(C(F)(F)F)c1 [Compound VII],effect on levator ani muscle weight,intact male rats,without affecting
same,prostate weight,intact male rats,63 % of that observed in vehicle-treated intact animals
same,effect on levator ani muscle weight,"[1]; 3 days, 0.5, 1, 5, 10, 25 mg/kg s.c.",without affecting
same,prostate weight (compared to intact animals),[1]; [7],80%
same,seminal vesicle weight (compared to intact animals),[1]; [7],70%
same,changes in levator ani muscle weights,"[1]; 6 days, 5, 10, 25 mg/kg s.c.",none of these doses caused any significant changes
same,increase of levator ani muscle weight,"[1]; 9 days, 25 mg/kg s.c.",12%
same,prostate weight (compared to intact animals),[1]; [8],50%
same,seminal vesicle weight (compared to intact animals),[1]; [8],45%
same,levator ani muscle weight (compared to intact animals),"[1]; 9 days, highest dose group (25 mg/kg) s.c.",112%
same,changes in levator ani muscle weights,"[1]; 9 days, most of the dose groups s.c.",no significant changes
same,atrophy in prostate on increasing the dose 100-fold,[2]; 10 mg/kg compared to 1000 mg/kg as printed,did not significantly increase
same,reduction of prostate weight (normalized to body weight) compared to the intact control,"[2]; all treatment groups, oral gavage once daily for 7 days, p<0.01",greater than 48.4%
CC(=O)Nc1ccc(OC[C@](C)(O)C(=O)Nc2ccc([N+](=O)[O-])c(C(F)(F)F)c2)cc1 [Compound VI],type of inhibition of 5α-reductase type 1,[3],competitive inhibitor
same,metabolism of Compound VI by 5α-reductase type 1,[3]; [9],not metabolized
same,decrease in testosterone concentration in the presence of Compound VI,[3]; [10],less than 10%
same,type of inhibition of 5α-reductase type 2,[4],competitive inhibitor
same,metabolism of Compound VI by 5α-reductase type 2,[4]; [9],not metabolized
same,decrease in testosterone concentration in the presence of Compound VI,[4]; [10],less than 10%
same,effect on plasma FSH and LH levels,"[5]; all surgical groups, 0.5 mg/day",no effect
same,Plasma FSH levels,[5]; castrated rats,69.6 ± 11.7 ‡ ng/ml
same,Plasma LH levels,[5]; castrated rats,8.644 ± 2.799 ‡ ng/ml
same,Plasma osteocalcin levels,[5]; castrated rats,94.215 ± 12.568 ng/mL
same,Plasma testosterone levels,[5]; castrated rats,0.066 ± 0.148 ‡ ng/ml
same,effect on plasma osteocalcin levels,"[5]; hemi-orchidectomized and castrated animals, 0.5 mg/day",significant increase
same,Plasma FSH levels,[5]; hemi-orchidectomized rats,15.2 ± 2.2 ng/mL
same,Plasma LH levels,[5]; hemi-orchidectomized rats,0.124 ± 0.115 ng/mL
same,Plasma osteocalcin levels,[5]; hemi-orchidectomized rats,89.804 ± 15.517 ng/mL
same,Plasma testosterone levels,[5]; hemi-orchidectomized rats,1.404 ± 0.810 ng/mL
same,Plasma FSH levels,[5]; intact rats,14.4 ± 1.7 ng/mL
same,Plasma LH levels,[5]; intact rats,0.026 ± 0.037 ng/mL
same,Plasma osteocalcin levels,[5]; intact rats,55.584 ± 9.715 ng/mL
same,Plasma testosterone levels,[5]; intact rats,1.830 ± 0.510 ng/mL
same,effect on plasma testosterone levels,"[5]; intact, hemi-orchidectomized or castrated male rats, 0.5 mg/day",did not affect
same,Levator ani muscle weight normalized to body weight,[6]; castrated rats,100.65 ± 10.86 % of intact control
same,Prostate weight normalized to body weight,[6]; castrated rats,32.55 ± 11.65 % of intact control
same,Seminal vesicle weight normalized to body weight,[6]; castrated rats,16.47 ± 5.21 % of intact control
same,Levator ani muscle weight normalized to body weight,[6]; hemi-orchidectomized rats,108.10 ± 8.92 % of intact control
same,Prostate weight normalized to body weight,[6]; hemi-orchidectomized rats,74.69 ± 8.44 % of intact control
same,Seminal vesicle weight normalized to body weight,[6]; hemi-orchidectomized rats,78.55 ± 13.58 % of intact control
same,size of the levator ani muscle,[6]; hemi-orchidectomized rats,108 % of that observed in untreated hemi-orchidectomized animals
same,size of the prostate,[6]; hemi-orchidectomized rats,75 % of that observed in untreated hemi-orchidectomized animals
same,size of the seminal vesicles,[6]; hemi-orchidectomized rats,79 % of that observed in untreated hemi-orchidectomized animals
same,Levator ani muscle weight normalized to body weight,[6]; intact rats,109.15 ± 14.68 % of intact control
same,Prostate weight normalized to body weight,[6]; intact rats,79 % of intact control
same,Seminal vesicle weight normalized to body weight,[6]; intact rats,90.54 ± 12.10 % of intact control
same,changes in the size of the seminal vesicles or levator ani muscle,[6]; intact rats,no statistically significant changes
same,Prostate weight normalized to body weight,"[6]; intact rats, listed as COMPOUND VI",79.41 ± 9.32 % of intact control
same,adverse pharmacologic effects,[6]; rats,No adverse pharmacologic effects were observed
